Reference: patent publication US20260115185A1, “QUINOLINE DERIVATIVES WHICH ACT AS KAPPA-OPIOID RECEPTOR ANTAGONISTS” (The Scripps Research Institute, priority 2023, published 2026)

Key:
[1] = biological target: T1, kappa opioid receptor (KOR) (Homo sapiens, UniProt P41145); test: OPRKappa 1 Tango B-Arrestin Assay, antagonist mode (Tango OPRK1-bla U2OS cells, U50488 EC80 challenge); assay type: cell-based; details: for Selectivity (MOR/KOR): Kappa selectivity, MOR IC50 / KOR IC50; for IC50: antagonist mode, Tango OPRK1-bla U2OS cells, 6 nM U50488 challenge
T1 construct: host or cells: U2OS (Tango OPRK1-bla U2OS)
T1 sequence (P41145 whole entry): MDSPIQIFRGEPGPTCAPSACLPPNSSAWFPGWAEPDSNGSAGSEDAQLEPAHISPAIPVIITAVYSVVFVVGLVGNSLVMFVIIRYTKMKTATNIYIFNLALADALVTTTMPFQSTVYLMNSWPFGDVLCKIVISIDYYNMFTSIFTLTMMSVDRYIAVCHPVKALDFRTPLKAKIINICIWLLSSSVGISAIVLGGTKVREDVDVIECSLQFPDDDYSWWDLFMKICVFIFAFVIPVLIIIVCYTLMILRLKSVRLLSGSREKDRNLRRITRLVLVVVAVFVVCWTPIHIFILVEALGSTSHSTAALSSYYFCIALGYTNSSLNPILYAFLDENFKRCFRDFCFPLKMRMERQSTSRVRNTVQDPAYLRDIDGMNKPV
In short: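 Tango OPRK1-bla U2OS cells, β-arrestin recruitment read as β-lactamase FRET (CCF4-AM, 460/590 nm emission). Compounds, 10-point 1:3 series from nominal 10 µM in quadruplicate, preincubated 30 min at 37 °C, then challenged with U50488 at 6 nM final (EC80) for 4 h; percent inhibition from median ratio.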

mu opioid receptor (MOR) = biological target: T2, mu opioid receptor (MOR) (Homo sapiens, UniProt P35372); test: OPRMu1 Discover X β-arrestin Assay, antagonist mode (U2OS cells, DAMGO EC80 challenge); assay type: cell-based
T2 construct: host or cells: U2OS (Discover X OPRMu1-U2OS, PathHunter)
T2 sequence (P35372 whole entry): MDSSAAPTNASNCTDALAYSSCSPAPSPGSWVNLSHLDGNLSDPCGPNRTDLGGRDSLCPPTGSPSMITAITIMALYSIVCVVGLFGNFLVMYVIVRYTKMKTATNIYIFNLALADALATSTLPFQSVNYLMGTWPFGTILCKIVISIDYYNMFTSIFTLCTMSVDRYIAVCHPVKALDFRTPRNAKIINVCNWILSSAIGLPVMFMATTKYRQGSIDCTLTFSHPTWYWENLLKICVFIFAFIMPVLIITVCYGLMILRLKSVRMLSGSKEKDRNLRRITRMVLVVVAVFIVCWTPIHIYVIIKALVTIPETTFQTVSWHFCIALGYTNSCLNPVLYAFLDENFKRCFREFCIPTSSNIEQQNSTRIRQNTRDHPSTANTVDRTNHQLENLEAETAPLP
In short: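 PathHunter U2OS cells with β-gal fragment-complementation readout for β-arrestin recruitment to OPRMu1. Cells were preincubated with compound (10-point, 1:3 series from nominal 10 micromolar) for 30 min at 37 °C, then challenged with 303 nM DAMGO (EC80) for 3 h. Luminescence gave percent inhibition.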

Row | SMILES | IC50 [1] | IC50 (mu opioid receptor (MOR)) | Selectivity (MOR/KOR) [1]
1 | CCc1cc(F)c2nc(N3CCC(NCC4(F)CC4)CC3)c(-c3cc(C)n(C)n3)c(C)c2c1 [Compound 19, 1-(3-(1,5-dimethyl-1H-pyrazol-3-yl)-6-ethyl-8-fluoro-4-methylquinolin-2-yl)-N-((1-fluorocyclopropyl)methyl)piperidin-4-amine] | 1 to 10 nM | 100 to 1000 nM | +++ (between 100- to 1000-fold selective)
2 | CCc1cc(F)c2nc(N3CCN(CC4CCOCC4)C[C@H]3C)c(-c3ccn(C)n3)c(C)c2c1 [Compound 2, (R)-6-ethyl-8-fluoro-4-methyl-3-(1-methyl-1H-pyrazol-3-yl)-2-(2-methyl-4-((tetrahydro-2H-pyran-4-yl)methyl)piperazin-1-yl)quinoline] | 1 to 10 nM | > 1000 nM | +++ (between 100- to 1000-fold selective)
3 | CCc1cc(F)c2nc(N3CCN(C(=O)[C@H](C)N4CC[C@@H](O)C4)C[C@H]3C)c(-c3nc(C)no3)c(C)c2c1 [Compound 150] | ≥ 100 nM | > 1000 nM | +++ (between 100- to 1000-fold selective)
4 | CCc1cc(F)c2nc(N3CCC(N[C@@H]4CCOC4)CC3)c(-c3cc(C(F)(F)F)n(C)n3)c(C)c2c1 [Compound 85] | 10 to 100 nM | > 1000 nM | +++ (between 100- to 1000-fold selective)
5 | CCc1cc(F)c2nc(N3CCN(C(=O)C4CN(C)C4)C[C@H]3C)c(-c3nc(C)no3)c(C)c2c1 [Compound 45] | 10 to 100 nM | > 1000 nM | ++ (between 10- and 100-fold selectivity)
6 | CCc1cc(F)c2nc(N3CC[C@H]4[C@H](CCN4C[C@@H]4CCCOC4)C3)c(-c3ccn(C)n3)c(C)c2c1 [Compound 130] | 10 to 100 nM | > 1000 nM | ++ (between 10- and 100-fold selectivity)
7 | CCc1cc(F)c2nc(N3CCN(C(=O)CN(C)C)C[C@H]3C)c(-c3cc(C)no3)c(C)c2c1 [Compound 181] | 10 to 100 nM | > 1000 nM | +++ (between 100- to 1000-fold selective)
8 | Cc1noc(-c2c(N3CCN(CC4CCOCC4)C[C@H]3C)nc3c(F)cc(Cl)cc3c2C)n1 [Compound 50, (R)-5-(6-chloro-8-fluoro-4-methyl-2-(2-methyl-4-((tetrahydro-2H-pyran-4-yl)methyl)piperazin-1-yl)quinolin-3-yl)-3-methyl-1,2,4-oxadiazole] | ≥ 100 nM | > 1000 nM | ++ (between 10- and 100-fold selectivity)
9 | CCc1cc(F)c2nc(N3CCN(/C(=N/C#N)NC4CC(F)(F)C4)C[C@H]3C)c(-c3nc(C)no3)c(C)c2c1 [Compound 54] | < 1 nM | 10 to 100 nM | +++ (between 100- to 1000-fold selective)
10 | CCc1cc(F)c2nc(N3CCN(/C(=N\C#N)NC4CCOCC4)C[C@H]3C)c(-c3nc(C)no3)c(C)c2c1 [Compound 56] | 10 to 100 nM | 100 to 1000 nM | ++ (between 10- and 100-fold selectivity)
11 | CCc1cc(C#N)c2nc(N3CCC(N[C@@H]4CCOC[C@@H]4F)CC3)c(-c3ccn(C)n3)c(C)c2c1 [Compound 78] | < 1 nM | 10 to 100 nM | ++ (between 10- and 100-fold selectivity)
12 | CCc1cc(F)c2nc(N3CCN(C(=O)[C@@H]4CCCN4C)C[C@H]3C)c(-c3ccn(C)n3)c(C)c2c1 [Compound 175] | 10 to 100 nM | > 1000 nM | +++ (between 100- to 1000-fold selective)
13 | CCc1cc(F)c2nc(N3CCN(CCC4CC(F)(F)C4)C[C@H]3C)c(-c3nc(C)no3)c(C)c2c1 [Compound 186] | 1 to 10 nM | 100 to 1000 nM | +++ (between 100- to 1000-fold selective)
14 | CCc1cc(F)c2nc(N3CCN(C(=O)[C@@H]4CCCN4C)C[C@H]3C)c(-c3cc(C)no3)c(C)c2c1 [Compound 165] | 10 to 100 nM | > 1000 nM | +++ (between 100- to 1000-fold selective)
15 | CCc1cc(-c2cc(C)nn2C)c2nc(N3CCC(N[C@@H]4CCOC4)CC3)c(-c3ccn(C)n3)c(C)c2c1 [Compound 95] | < 1 nM | 10 to 100 nM | +++ (between 100- to 1000-fold selective)
16 | CCc1cc(F)c2nc(N3CC[C@@H](N[C@@H]4CCOC4)[C@H](C)C3)c(-c3ccn(C)n3)c(C)c2c1 [Compound 110] | 1 to 10 nM | > 1000 nM | +++ (between 100- to 1000-fold selective)
17 | CCc1cc(F)c2nc(N3CCN(C(C)C4CCOCC4)C[C@H]3C)c(-c3nc(C)no3)c(C)c2c1 (stereo partly drawn) [Compound 199, 5-(6-ethyl-8-fluoro-4-methyl-2-((2R)-2-methyl-4-(1-(tetrahydro-2H-pyran-4-yl)ethyl)piperazin-1-yl)quinolin-3-yl)-3-methyl-1,2,4-oxadiazole] | 10 to 100 nM | > 1000 nM | ++++ (more than 1000-fold selectivity over MOR)
18 | CCc1cc(F)c2nc(N3CCN(C(=O)[C@H]4CC(F)(F)CCN4)C[C@H]3C)c(-c3nc(C)no3)c(C)c2c1 [Compound 200] | 1 to 10 nM | > 1000 nM | +++ (between 100- to 1000-fold selective)
19 | CCc1cc(F)c2nc(N3CCN(C(=O)[C@H](Cc4ccccc4)N(C)C)C[C@H]3C)c(-c3nc(C)no3)c(C)c2c1 [Compound 52] | ≥ 100 nM | > 1000 nM | ++ (between 10- and 100-fold selectivity)
20 | CCc1cc(F)c2nc(N3CCN(C(=O)C(C)(C)N4CCCC4)C[C@H]3C)c(-c3ccn(C)n3)c(C)c2c1 [Compound 169] | 1 to 10 nM | > 1000 nM | ++ (between 10- and 100-fold selectivity)

Second part, led by results:

Row | IC50 [1] | IC50 (mu opioid receptor (MOR)) | SMILES | Selectivity (MOR/KOR) [1]
21 | 10 to 100 nM | > 1000 nM | CCc1cc(F)c2nc(N3CCN(C(=O)CCN(C)C)C[C@H]3C)c(-c3nc(C)no3)c(C)c2c1 [Compound 43] | ++ (between 10- and 100-fold selectivity)
22 | 10 to 100 nM | > 1000 nM | CCc1cc(F)c2nc(N3CCC(OCCN4CCCC4)CC3)c(-c3nc(C)no3)c(C)c2c1 [Compound 187] | +++ (between 100- to 1000-fold selective)
23 | ≥ 100 nM | > 1000 nM | CCc1cc(F)c2nc(N3CCN(CC4CCOCC4)C4CC43)c(-c3nc(C)no3)c(C)c2c1 (centres unmarked) [Compound 60] | –
24 | 1 to 10 nM | > 1000 nM | CCc1cc(F)c2nc(N3CCN([C@H]4CCOC4)C[C@H]3C)c(-c3nc(C)no3)c(C)c2c1 [Compound 33] | +++ (between 100- to 1000-fold selective)
25 | 1 to 10 nM | 100 to 1000 nM | CCc1cc(F)c2nc(N3CCN(C(=O)CN4CCCC4)C[C@H]3C)c(-c3nc(C)no3)c(C)c2c1 [Compound 47, (R)-1-(4-(6-ethyl-8-fluoro-4-methyl-3-(3-methyl-1,2,4-oxadiazol-5-yl)quinolin-2-yl)-3-methylpiperazin-1-yl)-2-(pyrrolidin-1-yl)ethan-1-one] | +++ (between 100- to 1000-fold selective)
26 | 1 to 10 nM | > 1000 nM | CCc1cc(-c2ccnn2C)c2nc(N3CC[C@H](NC4CCOCC4)[C@H](F)C3)c(-c3ccn(C)n3)c(C)c2c1 [Compound 1, (3R,4S)-1-(6-ethyl-4-methyl-3-(1-methyl-1H-pyrazol-3-yl)-8-(1-methyl-1H-pyrazol-5-yl)quinolin-2-yl)-3-fluoro-N-(tetrahydro-2H-pyran-4-yl)piperidin-4-amine] | +++ (between 100- to 1000-fold selective)
27 | 10 to 100 nM | 1 to 10 nM | CCc1cc(F)c2nc(N3CCN(/C(=N\C#N)NC4CCOCC4)C[C@H]3C)c(-c3ccn(C)n3)c(C)c2c1 [Compound 11, (R,E)-N′-cyano-4-(6-ethyl-8-fluoro-4-methyl-3-(1-methyl-1H-pyrazol-3-yl)quinolin-2-yl)-3-methyl-N-(tetrahydro-2H-pyran-4-yl)piperazine-1-carboximidamide] | ++ (between 10- and 100-fold selectivity)
28 | 10 to 100 nM | > 1000 nM | CCc1cc(F)c2nc(N3CCN(C[C@H]4CCCO4)C[C@H]3CC)c(-c3nc(C)no3)c(C)c2c1 [Compound 36] | ++ (between 10- and 100-fold selectivity)
29 | 1 to 10 nM | > 1000 nM | CCc1cc(F)c2nc(N3CC[C@H](N[C@@H]4CCOC4)[C@@H](F)C3)c(-c3ccn(C)n3)c(C)c2c1 [Compound 195, (3S,4S)-1-(6-ethyl-8-fluoro-4-methyl-3-(1-methyl-1H-pyrazol-3-yl)quinolin-2-yl)-3-fluoro-N—((R)-tetrahydrofuran-3-yl)piperidin-4-amine] | ++++ (more than 1000-fold selectivity over MOR)
30 | 1 to 10 nM | 10 to 100 nM | CCc1cc(-c2ccnn2C)c2nc(N3CCC(NCC4CC(F)(F)C4)CC3)c(-c3ccn(C)n3)c(C)c2c1 [Compound 91] | ++ (between 10- and 100-fold selectivity)
31 | 10 to 100 nM | 100 to 1000 nM | CCc1cc(F)c2nc(N3CCN(CC4CCOCC4)C[C@H]3CC)c(-c3nc(C)no3)c(C)c2c1 [Compound 34, (R)-5-(6-ethyl-2-(2-ethyl-4-((tetrahydro-2H-pyran-4-yl)methyl)piperazin-1-yl)-8-fluoro-4-methylquinolin-3-yl)-3-methyl-1,2,4-oxadiazole] | + (less than 10-fold selectivity)
32 | 1 to 10 nM | > 1000 nM | CCc1cc(F)c2nc(N3CCN(C(=O)[C@H](CO)N(C)C)C[C@H]3C)c(-c3cc(C)no3)c(C)c2c1 [Compound 168] | +++ (between 100- to 1000-fold selective)
